This assay deals with infected cooling water. Description: Biocide test: bacterial counts in dosed samples of infected cooling water after 17 hours. The class given is cell-based. The settings on record: for bacterial counts per ml.: Table 2 (Example 6), control 10⁷. On the procedure: Ethyl tris (hydroxymethyl) phosphonium chloride (Ethyl THPC) prepared according to the method of example 4, THPS, and a tetrakis (1 - hydroxy ethyl) phosphonium chloride (comparative example) were each dosed at four different concentrations to separate samples of an infected cooling water.
Bacterial counts per ml. of solution were estimated after 17 hours. The results are set out in Table 1 Table 1
Methyl tris (hydroxy methyl) phosphonium chloride (methyl THPC), THPS, and two other comparative examples, cyclohexyl tris (hydroxy methyl) phosphonium chloride and octyl tris (hydroxy methyl) phosphonium sulphate were each added at concentrations of 50, 200 and 1,000 ppm to separate samples of an infected cooling water.
Allyl tris (hydroxymethyl) phosphonium bromide (allyl THPB) prepared as described in Ex3 was compared with 2, 6-dichlorobenzyl tris (hydroxymethyl) phosphonium bromide and THPS in a biocide test as described in example 5. […]

Where [1] appears, read: Table 3 (Example 7), 100 ppm, test as in example 5.
Setting [2] is: Table 3 (Example 7), 150 ppm, test as in example 5.
Where [3] appears, read: Table 3 (Example 7), 200 ppm, test as in example 5.
Setting [4] is: Example 5, summary in words of Table 1.
Where [5] appears, read: Table 1 (Example 5), 150 ppm, after 17 hours, control 10⁶.
Where [6] appears, read: Table 1 (Example 5), 200 ppm, after 17 hours, control 10⁶.

For the compound `C=CC[P+](CO)(CO)CO.[Br-]` [ALLYL THPB, Allyl tris (hydroxymethyl) phosphonium bromide], the bactericidal activity result (Example 7, summary in words of Table 3) is “performs at least as well as THPS”. Also, the “Bacterial counts per ml. of solution” value runs as follows: under setting [1], 0 per ml; under setting [2], 0 per ml; under setting [3], 0 per ml.

Turning to `C[P+](CO)(CO)CO.[Cl-]` [METHYL THPC, Methyl tris (hydroxy methyl) phosphonium chloride], the “bacterial counts per ml.” value (200 ppm, after 17 hours) is reported as 0 per ml and the “bacterial counts per ml.” value (1000 ppm, after 17 hours) worked out at 0 per ml.

On to `CC[P+](CO)(CO)CO.[Cl-]` [ETHYL THPC, Ethyl tris (hydroxymethyl) phosphonium chloride], for which, under setting [4], the bactericidal activity entry is “more effective than THPS at lower concentrations”. The “Bacterial counts per ml. of solution” value (Table 1 (Example 5), 100 ppm, after 17 hours, control 10⁶) is 0 per ml; the “Bacterial counts per ml. of solution” value under setting [5] stood at 0 per ml; the “Bacterial counts per ml. of solution” value under setting [6] came out at 0 per ml.

Consider `OC[P+](CO)(CO)CO` [THPS, reference compound], for which, under setting [4], the bactericidal activity entry is given as “effective”. The “Bacterial counts per ml. of solution” value by setting is: under setting [5], 0 per ml; under setting [6], 0 per ml; under setting [1], 0 per ml; under setting [2], 0 per ml; under setting [3], 0 per ml. Moreover, the “bacterial counts per ml.” value runs as follows: (200 ppm, after 17 hours) 0 per ml; (1000 ppm, after 17 hours) 0 per ml.

Source of the values: patent EP0380359A1, “Biocidal compositions and treatments” (Albright & Wilson Limited, priority 1989, dated 1990).
